Data as given in US11542316B2, “S-Arrestin peptides and therapeutic uses thereof” (APITOPE INTERNATIONAL NV, priority 2017, dated 2023).
“Also recorded” adds a separate entry of the source. Ends that are not written are not given here.

target: T1, MHC II molecules present on dendritic cells (DC) (Homo sapiens, UniProt P01903+P01911, A100K/A102G/A103R/F55Y/I96L/K41T/P40S/Q125H/Q178H/Q39Y/R42S/S66N/T106N/T262R/W38E/Y61H); assay: In vivo presentation experiment, DR3tg mice; settings: 100 μg peptide s.c., CD11c+ cells harvested after 2 hours, co-culture 48 hours
T1 construct: from tissue; host or cells: CD11c+ dendritic cells from spleens of DR3tg mice (genomic HLA-DRA and DRB1*0301 transgenes, no mouse MHC class II)
Description: FIG. 14: In vivo presentation protocol. Mice are immunized with peptide/CFA and a T cell line is established. For this, ten days after immunization the LN and spleens are harvested and cultured with different concentrations of peptide; 2×10^6 cells/ml APC+1×10^6 cells/ml CD4^+ cells per well. At day 7 the cells are re-stimulated with fresh APC and the same concentrations of peptide. After 14 to 21 days, CD4^+ cells are isolated from these cultures by magnetic bead isolation. These CD4^+ cells are co-cultured with CD11c^+ (dendritic) cells isolated by magnetic bead isolation from spleens of mice s.c. injected with peptide 2 hours before. Control mice receive a s.c. injection of PBS. After 48 hours, supernatant is collected and cytokine response (IFN-γ) is measured. LN, lymph nodes; APC, Antigen presenting cell; s.c. subcutaneous.
FIG. 15: In vivo presentation of HIP-115 nested peptides in DR3 mice. DR3 mice were immunized with HIP-115/CFA and a T cell line was established. For this, ten days after immunization the LN and spleens were harvested and cultured with different concentrations of peptide (0.1-1-2.5 and 5 μg/ml); 2×10^6 cells/ml APC+1×10^6 cells/ml CD4^+ cells per well. At day 7 the cells were re-stimulated with fresh APC and the same concentrations of peptide. After 14 days, CD4^+ cells were isolated from these cultures by magnetic bead isolation. These CD4^+ cells were co-cultured with CD11c (dendritic) cells isolated by magnetic bead isolation from spleens of DR3 mice s.c. injected with peptides HIP-115NE3, HIP-115NE3-KKK or PBS 2 hours before. After 48 hours, supernatant was collected and IFN-γ production was measured by ELISA. Data are presented as the mean IFN-γ concentration±SEM (One-way ANOVA with Dunn's multiple comparison, * p<0.05, ** p<0.01). LN, lymph nodes; APC, Antigen presenting cell; s.c. subcutaneous.
FIG. 16: In vivo presentation of HIP-24 nested peptides in DR3 mice. DR3 mice were immunized with HIP-241125+HIP-24DG/CFA and a T cell line was established. For this, ten days after immunization the LN and spleens were harvested and cultured with different concentrations of peptide (0.3-1.2-3 and 6 μg/ml); 2×10^6 cells/ml APC+1×10^6 cells/ml CD4^+ cells per well. At day 7 the cells were re-stimulated with fresh APC and the same concentrations of peptide. After 14 days, CD4^+ cells were isolated from these cultures by magnetic bead isolation. […] After 48 hours, supernatant was collected and IFN-γ production was measured by ELISA. […]
FIG. 18: In vivo presentation of HIP-17GN nested peptides in DR3 mice. […] After 48 hours, supernatant was collected and IFN-γ production was measured by ELISA. […]

T1 sequence (P01903 26-254): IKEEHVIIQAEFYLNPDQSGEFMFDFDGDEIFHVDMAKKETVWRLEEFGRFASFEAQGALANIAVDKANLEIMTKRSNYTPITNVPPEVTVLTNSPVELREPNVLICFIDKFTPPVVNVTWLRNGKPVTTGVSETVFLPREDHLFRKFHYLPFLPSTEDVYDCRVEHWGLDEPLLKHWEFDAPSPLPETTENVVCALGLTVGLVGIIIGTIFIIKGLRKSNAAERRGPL
T1 sequence (P01911 30-266 with the stated changes): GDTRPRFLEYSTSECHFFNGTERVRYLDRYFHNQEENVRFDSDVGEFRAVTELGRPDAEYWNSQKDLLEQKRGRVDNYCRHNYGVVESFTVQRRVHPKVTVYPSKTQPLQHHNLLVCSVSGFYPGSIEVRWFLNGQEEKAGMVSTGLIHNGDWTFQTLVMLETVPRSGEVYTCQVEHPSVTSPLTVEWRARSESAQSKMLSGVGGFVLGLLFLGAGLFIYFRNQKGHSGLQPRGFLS

Substance | picked up and presented by MHC II on dendritic cells to peptide-specific T cells (IFN-γ production)
LPLLANNRERRGIA-NH2 [HIP-24HM3, LPLLANNRERRGIA] | presented by DC to T cells
KKKVIFKKISRDKSVTIYLGKKK-NH2 [HIP-115NE3-KKK] | bound to the MHC II on DC in situ and presented to peptide-specific T cells
KKKLTFRRDLYFSRVQVYKKK-NH2 [HIP-17J-KKK] | presented by DC to T cells; also recorded: A certain degree of activation
VIFKKISRDKSVTIYLG-NH2 [HIP-115NE3, VIFKKISRDKSVTIYLG] | not able to cause this activation
